The text below walks through data of publication PMC5242521 (PLoS ONE, 2017).

Series [1] concerns the target T1, OCT1 (Homo sapiens, UniProt O15245).
T1 sequence (O15245 1-554): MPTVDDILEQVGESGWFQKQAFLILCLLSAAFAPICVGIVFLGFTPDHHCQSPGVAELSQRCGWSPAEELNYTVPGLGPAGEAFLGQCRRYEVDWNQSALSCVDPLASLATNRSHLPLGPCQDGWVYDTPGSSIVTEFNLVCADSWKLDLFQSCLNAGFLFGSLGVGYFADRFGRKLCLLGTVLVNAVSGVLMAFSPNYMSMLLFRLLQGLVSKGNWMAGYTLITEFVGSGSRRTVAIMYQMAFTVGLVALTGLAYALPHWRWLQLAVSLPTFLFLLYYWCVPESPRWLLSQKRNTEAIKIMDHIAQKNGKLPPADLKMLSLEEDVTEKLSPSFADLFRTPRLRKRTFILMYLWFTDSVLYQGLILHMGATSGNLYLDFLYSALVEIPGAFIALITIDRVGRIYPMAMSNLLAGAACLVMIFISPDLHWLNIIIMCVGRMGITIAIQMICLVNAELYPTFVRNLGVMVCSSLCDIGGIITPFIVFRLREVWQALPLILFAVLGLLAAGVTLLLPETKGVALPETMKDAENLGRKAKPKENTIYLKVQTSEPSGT
Briefly: OCT1 activity: DAPI accumulation in HEK-OCT1 cells. Particulars: for effect on OCT1 activity: pyrethroid 100 μM, DAPI; for inhibition at 100 μM: human. The protocol:
(§1) The effects of pyrethroids on activity of ABC and SLC transporters were determined through measuring cellular accumulation or retention of fluorescent or radiolabeled reference substrates for transporters, in the presence or absence of reference inhibitors, as previously described. The nature of cells and reference substrates and inhibitors used for transport assays are summarized in S3 Table.
(§2) The nature of substrates and reference inhibitors and the incubation times with substrates, that varied according to the transporter, were selected in agreement with previous studies and are indicated in S3 Table. The total incubation volume with substrates was 200 μL/well. […] An aliquot of cell lysate (5 μL) was then taken for determining cellular protein content by the Bradford method.
(§3) Intracellular concentrations of reference substrates were initially expressed as fluorescence arbitrary units (for fluorescent dye substrates) or as moles (for radiolabeled substrates) and normalized to cellular protein content, determined by the Bradford method. They were finally used for calculating percentage of transporter activity, according to the following equations [41, 45]: %ABCtransporter activity=([Substrateref inh]-[Substratepyrethroid])×100/([Substrateref inh]-[Substratecontrol]) (1) %SLC transporter activity=([Substratepyrethroid]-[Substratref inh])×100/([Substratecontrol]-[Substrateref inh]) (2) with [Substratepyrethroid] = cellular concentration of reference substrate in the presence of pyrethroid, [Substrateref inh] = cellular concentration of reference substrate in the presence of reference inhibitor and [Substratecontrol] = cellular concentration of reference substrate in control cells not exposed to pyrethroid or reference inhibitor.
(§4) The initial tested concentration of pyrethroids was 100 μM. […] Such concentrations were calculated using GraphPad Prism software (GraphPad Software, La Jolla, CA), through nonlinear regression based on the four parameter logistic function using the following equations: […]

Another series addresses T2, OCT2 (Homo sapiens, UniProt O15244).
T2 sequence (O15244 1-555): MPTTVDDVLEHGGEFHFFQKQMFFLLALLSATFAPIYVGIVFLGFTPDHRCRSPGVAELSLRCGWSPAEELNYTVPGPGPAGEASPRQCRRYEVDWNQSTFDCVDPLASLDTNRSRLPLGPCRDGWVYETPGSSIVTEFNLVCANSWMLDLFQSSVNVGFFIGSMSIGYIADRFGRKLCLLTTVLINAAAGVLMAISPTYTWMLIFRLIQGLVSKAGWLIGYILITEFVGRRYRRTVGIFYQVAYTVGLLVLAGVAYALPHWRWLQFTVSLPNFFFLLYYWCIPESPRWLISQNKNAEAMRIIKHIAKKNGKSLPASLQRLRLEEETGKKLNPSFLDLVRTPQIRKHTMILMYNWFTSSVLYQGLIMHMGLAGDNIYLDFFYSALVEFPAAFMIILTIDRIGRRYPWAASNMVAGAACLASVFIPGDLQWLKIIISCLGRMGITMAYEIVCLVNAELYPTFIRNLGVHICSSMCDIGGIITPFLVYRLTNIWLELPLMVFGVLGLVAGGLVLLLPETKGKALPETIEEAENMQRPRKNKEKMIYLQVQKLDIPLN
The series can be described thus: OCT2 activity: rhodamine 123 accumulation in HEK-OCT2 cells. Particulars: human. On the procedure: as §1, §2, §3, §4

Series [2] concerns the target T1, OCT1. Briefly: Trans-stimulation assay of TEA uptake in OCT1-transfected HEK293 cells. Type of series: cell-based. The note with it: pre-loading 60 min with 100 μM pyrethroid or 2 mM unlabeled TEA; HEK-OCT1 cells. The protocol:
Trans-stimulation assays were performed as previously described. Briefly, OCT1-transfected HEK293 cells were first preloaded with 2 mM unlabeled TEA or 100 μM pyrethroid for 60 min at 37°c in the transport assay medium described above. After washing twice with PBS, cells were next re-incubated in transport assay medium containing 29 μM [1-^14C]-TEA for 5 min at 37°C. After washing twice with PBS, cells were lysed in distilled water and intracellular accumulation of [1-^14C]-TEA was then determined by scintillation counting.
Intracellular accumulation of TEA was then determined by scintillation counting. […] After washing, cells were next re-incubated with 29 μM [1-^14C]-TEA for 5 min at 37°C. Intracellular accumulation of [1-^14C]-TEA was then determined by scintillation counting.

On the set-up of series [3]: method as in PMID 12708229. The note with it: human subjects environmentally exposed; ref [70]; cited from earlier work.
Series [4] addresses P-gp (Homo sapiens, UniProt P08183). Briefly: P-gp activity: rhodamine 123 accumulation in MCF7R cells. Particulars: pyrethroid 100 μM. On the procedure: as §1
(§5) For accumulation assays (performed for all transporters, excepted BCRP), transporter-expressing cells usually cultured in 48-well plates were first incubated at 37°C with reference substrates in the absence (control) or presence of pyrethroids or reference inhibitors, in a well-defined transport assay medium, consisting of 136 mM NaCl, 5.3 mM KCl, 1.1mM KH2PO4, 0.8 mM MgSO4, 1.8 mM CaCl2, 10 mM HEPES, 11 mM D-glucose and adjusted to pH = 7.4 (excepted for MATE transporter assays, for which pH was set to 8.4). The nature of substrates and reference inhibitors and the incubation times with substrates, that varied according to the transporter, were selected in agreement with previous studies and are indicated in S3 Table. The total incubation volume with substrates was 200 μL/well. After washing twice in phosphate-buffered saline (PBS) (200 μL/well/washing), cells were lysed in distilled water (155 μL/well). An aliquot of cell lysate (5 μL) was then taken for determining cellular protein content by the Bradford method. The rest of lysate (150 μL/well) was used for measuring intracellular accumulation of reference substrates by scintillation counting or spectrofluorimetry using a SpectraMax Gemini SX spectrofluorometer (Molecular Devices, Sunnyvale, CA, USA) (excitation and emission wavelengths were 485 and 535 nm, respectively, for rhodamine 123 and fluorescein, and 355 and 460 nm, respectively, for DAPI).
as §3, §4

Series [5] concerns P-gp. Particulars: ref [26], [27]; cited from earlier work.
The next series concerns the target T3, OAT1 (Homo sapiens, UniProt Q4U2R8).
T3 construct: host or cells: HEK293
T3 sequence (Q4U2R8 1-563): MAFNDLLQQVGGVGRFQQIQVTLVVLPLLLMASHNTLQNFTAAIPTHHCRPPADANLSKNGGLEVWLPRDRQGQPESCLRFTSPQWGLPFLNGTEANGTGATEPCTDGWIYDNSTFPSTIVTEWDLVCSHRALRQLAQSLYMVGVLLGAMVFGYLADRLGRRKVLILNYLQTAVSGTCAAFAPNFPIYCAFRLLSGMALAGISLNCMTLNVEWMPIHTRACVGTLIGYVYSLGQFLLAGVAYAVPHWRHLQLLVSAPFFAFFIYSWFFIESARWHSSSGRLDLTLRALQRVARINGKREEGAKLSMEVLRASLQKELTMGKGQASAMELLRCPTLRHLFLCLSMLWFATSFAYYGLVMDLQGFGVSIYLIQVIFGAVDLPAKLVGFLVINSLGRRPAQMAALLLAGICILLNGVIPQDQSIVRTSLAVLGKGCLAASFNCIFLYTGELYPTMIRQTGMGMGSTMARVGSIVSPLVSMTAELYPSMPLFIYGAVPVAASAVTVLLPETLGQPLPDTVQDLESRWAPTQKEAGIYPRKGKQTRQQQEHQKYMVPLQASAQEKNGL
Briefly: OAT1 activity: fluorescein accumulation in HEK-OAT1 cells. It counts as cell-based. Particulars: human, pH 7.4; pyrethroid 100 μM; HEK-OAT1 cells, fluorescein.

The target in the next series is T4, OAT3 (Homo sapiens, UniProt Q8TCC7).
T4 sequence (Q8TCC7 1-542): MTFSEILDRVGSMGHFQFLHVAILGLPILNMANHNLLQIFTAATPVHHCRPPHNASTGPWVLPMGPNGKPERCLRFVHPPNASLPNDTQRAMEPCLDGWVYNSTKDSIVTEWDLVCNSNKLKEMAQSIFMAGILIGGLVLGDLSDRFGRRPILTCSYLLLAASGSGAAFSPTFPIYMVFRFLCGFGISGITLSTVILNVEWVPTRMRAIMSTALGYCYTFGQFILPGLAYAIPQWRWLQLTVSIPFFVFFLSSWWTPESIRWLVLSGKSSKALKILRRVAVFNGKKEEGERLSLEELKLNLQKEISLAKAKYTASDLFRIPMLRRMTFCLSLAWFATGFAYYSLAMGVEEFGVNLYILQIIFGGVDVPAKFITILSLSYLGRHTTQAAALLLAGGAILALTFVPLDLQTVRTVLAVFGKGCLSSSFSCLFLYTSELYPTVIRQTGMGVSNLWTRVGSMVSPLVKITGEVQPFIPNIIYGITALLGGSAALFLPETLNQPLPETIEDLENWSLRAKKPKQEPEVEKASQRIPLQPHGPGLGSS
Briefly: OAT3 activity: fluorescein accumulation in HEK-OAT3 cells. Particulars: human, pH 7.4. On the procedure:
as §1, §5, §3, §4

Where [6] appears, read: HEK-OCT2 cells, pH 7.4, probe rhodamine 123.

Where “and” joins values, the source holds several entries; their conditions need not be identical. Equal values may be shown once. A value given as a limit tells only on which side of the number the result lay.

Sequence of P-gp (Homo sapiens, UniProt P08183) (P08183 whole entry): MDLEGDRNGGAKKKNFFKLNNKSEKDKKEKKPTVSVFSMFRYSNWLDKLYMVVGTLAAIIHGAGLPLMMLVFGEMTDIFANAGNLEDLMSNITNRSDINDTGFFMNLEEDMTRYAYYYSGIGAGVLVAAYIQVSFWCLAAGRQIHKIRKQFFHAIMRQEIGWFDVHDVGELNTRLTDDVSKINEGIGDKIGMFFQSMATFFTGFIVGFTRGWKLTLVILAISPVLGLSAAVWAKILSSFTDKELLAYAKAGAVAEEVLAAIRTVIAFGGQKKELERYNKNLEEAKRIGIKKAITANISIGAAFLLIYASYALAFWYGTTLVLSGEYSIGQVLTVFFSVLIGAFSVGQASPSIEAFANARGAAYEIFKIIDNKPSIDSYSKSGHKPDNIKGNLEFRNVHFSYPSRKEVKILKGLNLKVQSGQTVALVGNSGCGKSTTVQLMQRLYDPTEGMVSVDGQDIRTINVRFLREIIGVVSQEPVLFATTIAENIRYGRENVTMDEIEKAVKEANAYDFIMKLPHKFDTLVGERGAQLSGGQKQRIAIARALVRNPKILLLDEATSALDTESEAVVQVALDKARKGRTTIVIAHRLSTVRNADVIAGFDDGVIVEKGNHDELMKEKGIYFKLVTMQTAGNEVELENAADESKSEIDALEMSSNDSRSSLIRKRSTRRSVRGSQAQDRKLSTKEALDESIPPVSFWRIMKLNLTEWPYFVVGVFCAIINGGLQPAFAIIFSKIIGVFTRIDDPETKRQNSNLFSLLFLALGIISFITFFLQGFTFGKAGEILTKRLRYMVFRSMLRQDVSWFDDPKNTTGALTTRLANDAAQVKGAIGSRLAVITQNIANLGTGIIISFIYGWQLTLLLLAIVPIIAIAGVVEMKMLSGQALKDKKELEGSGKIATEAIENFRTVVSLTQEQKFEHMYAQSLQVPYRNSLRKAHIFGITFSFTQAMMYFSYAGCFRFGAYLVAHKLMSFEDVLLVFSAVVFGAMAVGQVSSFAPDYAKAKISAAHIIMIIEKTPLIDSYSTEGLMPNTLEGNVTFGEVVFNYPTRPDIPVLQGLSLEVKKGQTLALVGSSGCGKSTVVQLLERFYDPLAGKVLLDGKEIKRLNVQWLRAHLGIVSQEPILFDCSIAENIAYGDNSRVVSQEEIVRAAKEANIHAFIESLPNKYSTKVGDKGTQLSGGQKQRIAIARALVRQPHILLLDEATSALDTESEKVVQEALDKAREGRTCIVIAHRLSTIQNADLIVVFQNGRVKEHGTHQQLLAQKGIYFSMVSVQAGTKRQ
Description for OAT1: The effects of pyrethroids on activity of ABC and SLC transporters were determined through measuring cellular accumulation or retention of fluorescent or radiolabeled reference substrates for transporters, in the presence or absence of reference inhibitors, as previously described [41].
The total incubation volume with substrates was 200 μL/well. […] An aliquot of cell lysate (5 μL) was then taken for determining cellular protein content by the Bradford method [44].
Intracellular concentrations of reference substrates were initially expressed as fluorescence arbitrary units (for fluorescent dye substrates) or as moles (for radiolabeled substrates) and normalized to cellular protein content, determined by the Bradford method [44]. They were finally used for calculating percentage of transporter activity, according to the following equations [41, 45]: %ABCtransporter activity=([Substrateref inh]-[Substratepyrethroid])×100/([Substrateref inh]-[Substratecontrol]) (1) %SLC transporter activity=([Substratepyrethroid]-[Substratref inh])×100/([Substratecontrol]-[Substrateref inh]) (2) with [Substratepyrethroid] = cellular concentration of reference substrate in the presence of pyrethroid, [Substrateref inh] = cellular concentration of reference substrate in the presence of reference inhibitor and [Substratecontrol] = cellular concentration of reference substrate in control cells not exposed to pyrethroid or reference inhibitor.

With `Cc1c(COC(=O)[C@@H]2[C@H](/C=C(\Cl)C(F)(F)F)C2(C)C)cccc1-c1ccccc1` (racemic) [bifenthrin], the “effect on OCT1 activity” value at OCT1 [1] is given as “failed to significantly alter”.
Turning to `Cc1c(F)c(F)c(COC(=O)[C@@H]2[C@H](/C=C(\Cl)C(F)(F)F)C2(C)C)c(F)c1F` (racemic) [tefluthrin], the inhibition at 100 μM at OCT1 [1] (pH 7.4) is 30.1 to 48.8%; against OCT2 (pH 7.4) it was ~25%.
As to `CC1(C)[C@H](C(=O)O[C@H](C#N)c2cccc(Oc3ccccc3)c2)[C@@H]1/C=C(\Cl)C(F)(F)F` (racemic) [λ-cyhalothrin], at OCT1 [1] (pH 7.4), the inhibition at 100 μM was 30.1 to 48.8%.
For `CC[N+](CC)(CC)CC` [TEA, tetra-ethylammonium bromide, reference compound], the “effect of pre-loading on radiolabeled TEA uptake (trans-stimulation assay)” value on OCT1 [2] is “trans-stimulation”.
Consider `CC1(C)[C@H](C(=O)OCc2cccc(Oc3ccccc3)c2)[C@@H]1C=C(Cl)Cl` [cis-permethrin], for which, at OCT1 [1], the “effect on OCT1 activity” value is “failed to significantly alter”.
As for `CC1(C)C(C=C(Cl)Cl)C1C(=O)OC(C#N)c1ccc(F)c(Oc2ccccc2)c1` (centres unmarked) [cyfluthrin], the blood concentration in series [3] was < 5 μg/L and < 12.8 nM.
Take `CC1(C)C(C=C(Cl)Cl)C1C(=O)OC(C#N)c1cccc(Oc2ccccc2)c1` (centres unmarked) [cypermethrin]: on P-gp [4], the “effect on P-gp activity” value is “did not alter”. The blood concentration in series [3] is < 5 μg/L and < 12.8 nM.
Regarding `CC1(C)C(C(=O)OC(C#N)c2cccc(Oc3ccccc3)c2)C1(C)C` (centres unmarked) [fenpropathrin], the inhibition at 100 μM against OCT1 [1] (pH 7.4) fell in the range of 30.1 to 48.8%.
Take `CC(C)[C@H](Nc1ccc(C(F)(F)F)cc1Cl)C(=O)OC(C#N)c1cccc(Oc2ccccc2)c1` (some centres unmarked) [fluvalinate]: the “effect on P-gp activity” value at P-gp [4] is on record as “did not alter”. Also, the “effect on P-gp activity or ATPase activity” value with P-gp [5] is on record as “inhibit”.
Take `CC1(C)[C@H](C=C(Cl)Cl)[C@H]1C(=O)OCc1cccc(Oc2ccccc2)c1` [trans-permethrin]: the inhibition at 100 μM was 30.1 to 48.8% at OCT1 [1] (pH 7.4) and ~25% against OCT2 (setting [6]).
Consider `CC1(C)[C@H](C=C(Cl)Cl)[C@H]1C(=O)O[C@@H](C#N)c1cccc(Oc2ccccc2)c1` [β-cypermethrin], for which the inhibition at 100 μM was 30.1% on OCT1 [1] (HEK-OCT1 cells, pH 7.4, probe DAPI) and ~25% against OCT2 (setting [6]).
`CC(C)[C@@H](Nc1ccc(C(F)(F)F)cc1Cl)C(=O)OC(C#N)c1cccc(Oc2ccccc2)c1` (some centres unmarked) [τ-fluvalinate]: the inhibition at 100 μM against OAT1 is 42.8%; against OCT2 (pH 7.4) it was ~25%; on OAT3, 15.6%. In addition, at OCT1 [1], the “effect on OCT1 activity” value is reported as “failed to significantly alter”.
